Measured values as given in patent US7662404B2, “Transdermal delivery system for dried particulate or lyophilized peptides and polypeptides” (TransPharma Medical Ltd., priority 2002, dated 2010).
Values joined by “and” are separate entries in the source; they are usually repeats but may differ in a detail not shown here. Identical values can stand only once. Like-named read-outs stand apart in the source and are kept apart here.

Experiments:
[1] = Plasma hPTH (1-34) after SC injection or printed patches (water) with ViaDerm in pigs (Example 11); assay type: in vivo; settings: for bioavailability: read-out: % bioavailability cf. to S.C.
Procedure: Pigs (males, 10-12 kg, Large white) were treated as follows:
Group 1: 10 μg of hPTH (1-34) were injected subcutaneously (S.C.; total 3 pigs)
[…] Printed patches containing 50 μg hPTH (1-34) were placed over the treated area and covered with Tegaderm (3M Health Care, St. Paul, Minn.). Total delivery area=1.4 cm (total 3 pigs).
(§1) […] Printed patches containing 100 μg hPTH (1-34) were placed over the treated area and covered with Tegaderm. Total delivery area=1.4 cm (total 3 pigs).
as §1
hPTH (1-34) was dissolved in water and then printed on the patches. hPTH (1-34) concentrations in pig plasma were measured by an ELISA kit (Immutopics, San Clemente, Calif., USA).

[2] = Plasma hPTH (1-34) from different printed patch formulations in pigs (Example 12); assay type: in vivo
Procedure: The experiment was performed as follows: Group 1: Each pig underwent two ViaDerm applications (150 micro-channels/cm^2) on one site on the back. A 100 μg hPTH (1-34) printed patch was placed over the application area and covered with Tegaderm. Total delivery area=1.4 cm (total 3 pigs). Formulation: hPTH (1-34) in water for injection (WFI), pH=6. Group 2: Each pig underwent two ViaDerm applications (150 micro-channels/cm^2) on one site on the back. A 100 μg hPTH (1-34) printed patch was placed over the application area and covered with Tegaderm. Total delivery area=1.4 cm^2 (total 3 pigs). Formulation: hPTH (1-34): Sucrose (1:5.5) in 0.72% acetic acid, pH=4. Group 3: Each pig underwent two ViaDerm applications (150 micro-channels/cm^2) on one site on the back. A 100 μg hPTH (1-34) printed patch was placed over the application area and covered with Tegaderm. Total delivery area=1.4 cm^2 (total 3 pigs). Formulation: hPTH (1-34): Trehalose (1:11) in 0.4% citric acid, pH=4. Group 4: Each pig was injected SC with 0.2 ml (20 μg) of hPTH (1-34) diluted to a 100 μg/ml solution with saline (total 3 pigs).

[3] = Plasma hPTH (1-34) in female adult healthy human volunteers, ViaDerm and printed patches or SC (Example 13); assay type: in vivo; set-up: AUC (individual subjects): unit not given here; settings: for Cmax (individual subjects): women; for Cmax (individual subjects) / AUC (individual subjects) / AUC: 12 h; for AUC / Tmax / Cmax: female, human, plasma
Procedure: Transdermal drug delivery study of hPTH (1-34) in four female adult healthy human volunteers was performed using ViaDerm and printed patches.
To evaluate the transdermal delivery of hPTH (1-34), printed patches containing 100 μg or 200 μg hPTH (1-34) (FORTEO®, Teriparatide purchased from Ely Lilly, Indianapolis, Ind., USA) were prepared. Patch area was 1.44 cm^2.
ViaDerm parameters: electrode array of 75 or 100 micro-channels/cm^2; ViaDerm was applied two or three times generating micro-channels at a density of 150 or 300 micro-channels/cm^2; Voltage: 290 volts, constant voltage; Burst length: 5000 μsec; Maximal current: 50 mA.
(§2) Each female adult received five treatments of hPTH (1-34) with a minimum of 2 day clearance between treatments. The treatments were as follows: • 1. Three ViaDerm applications (final density of 300 micro-channels/cm^2) on one site of the upper arm. Two printed patches, each containing 100 μg hPTH (1-34), were placed over the application area (each for 6 hours). • 2. Two ViaDerm applications (final density of 150 micro-channels/cm^2) on one site of the upper arm. Two printed patches, each containing 200 μg hPTH (1-34), were placed over the application area. • 3. Three ViaDerm applications (final density of 300 micro-channels/cm^2) on one site of the upper arm. Two printed patches, each containing 200 μg hPTH (1-34), were placed over the application area. • 4. Subcutaneous (SC) injection of 20 μg hPTH (1-34) (FORTEO®, Teriparatide was purchased from Ely Lilly, Indianapolis, Ind., USA). • 5. SC injection of 60 μg hPTH (1-34) (FORTEO®).
(§3) Plasma hPTH (1-34), calcium ions and phosphate ions were determined by Eliza using commercial kits.

[4] = system: plasma calcium ions and phosphorous; test: Plasma calcium ions and phosphorus in women after hPTH (1-34) (Example 13); assay type: in vivo, human; settings: four women, all transdermal and SC treatments
Procedure: as §2, §3

CC[C@H](C)[C@H](NC(=O)[C@H](CCC(=O)O)NC(=O)[C@H](CO)NC(=O)[C@@H](NC(=O)[C@@H](N)CO)C(C)C)C(=O)N[C@@H](CCC(N)=O)C(=O)N[C@@H](CC(C)C)C(=O)N[C@@H](CCSC)C(=O)N[C@@H](Cc1cnc[nH]1)C(=O)N[C@@H](CC(N)=O)C(=O)N[C@@H](CC(C)C)C(=O)NCC(=O)N[C@@H](CCCCN)C(=O)N[C@@H](Cc1cnc[nH]1)C(=O)N[C@@H](CC(C)C)C(=O)N[C@@H](CC(N)=O)C(=O)N[C@@H](CO)C(=O)N[C@@H](CCSC)C(=O)N[C@@H](CCC(=O)O)C(=O)N[C@@H](CCCN=C(N)N)C(=O)N[C@H](C(=O)N[C@@H](CCC(=O)O)C(=O)N[C@@H](Cc1c[nH]c2ccccc12)C(=O)N[C@@H](CC(C)C)C(=O)N[C@@H](CCCN=C(N)N)C(=O)N[C@@H](CCCCN)C(=O)N[C@@H](CCCCN)C(=O)N[C@@H](CC(C)C)C(=O)N[C@@H](CCC(N)=O)C(=O)N[C@@H](CC(=O)O)C(=O)N[C@H](C(=O)N[C@@H](Cc1cnc[nH]1)C(=O)N[C@@H](CC(N)=O)C(=O)N[C@@H](Cc1ccccc1)C(=O)O)C(C)C)C(C)C [hPTH (1-34)]
Amount delivered ([1]; S.C. 10 μg): 10 µg
AUC ([1]; male, Large white, pig, plasma, other: transdermal printed patch on ViaDerm-treated skin, 50 ug, printed patch 50 μg): 0.46 ng·h/mL
Cmax ([1]; male, Large white, pig, plasma, other: transdermal printed patch on ViaDerm-treated skin, 50 ug, printed patch 50 μg (water), ViaDerm, back, read-out: Cmax): ~0.15 ng/mL
AUC ([1]; male, Large white, pig, plasma, other: transdermal printed patch on ViaDerm-treated skin, 100 ug, patch 100 μg): 0.919 ng·h/mL
Cmax ([1]; male, Large white, pig, plasma, other: transdermal printed patch on ViaDerm-treated skin, 100 ug, printed patch 100 μg (water), ViaDerm, back, read-out: Cmax): 0.32 ng/mL
AUC ([1]; male, Large white, pig, plasma, other: transdermal printed patch on ViaDerm-treated skin, 200 ug, patch 200 μg): 1.6 ng·h/mL
Cmax ([1]; male, Large white, pig, plasma, other: transdermal printed patch on ViaDerm-treated skin, 200 ug, printed patch 200 μg (water), ViaDerm, back, read-out: Cmax): ~0.32 ng/mL
AUC ([1]; male, Large white, pig, plasma, sc, 10 ug, S.C. 10 μg): 0.365 ng·h/mL
bioavailability ([1]; male, Large white, pig, plasma, sc, 10 ug, S.C. 10 μg (reference)): 100%
Cmax ([1]; male, Large white, pig, plasma, sc, 10 ug, S.C. 10 μg, neck, read-out: Cmax): 0.374 ng/mL
bioavailability ([1]; male, Large white, pig, plasma, sc, 50 ug, printed patch 50 μg): 25.2%
bioavailability ([1]; male, Large white, pig, plasma, sc, 100 ug, patch 100 μg): 25.2%
bioavailability ([1]; male, Large white, pig, plasma, sc, 200 ug, patch 200 μg): 21.9%
Amount delivered ([1]; patch 100 μg): 225.18 µg
Amount delivered ([1]; patch 200 μg): 43.84 µg
Amount delivered ([1]; printed patch 50 μg): 12.6 µg
Cmax ([1]; printed patch 50 μg (water), ViaDerm, back): 0.136 ng/mL
Cmax ([1]; printed patch 200 μg (water), ViaDerm, back): 0.317 ng/mL
Amount delivered ([2]; S.C. 20 ug): 20 µg
% bio ([2]; S.C. 20 ug (reference)): 100%
AUC ([2]; pig, plasma, sc, S.C. 20 ug): 1.16 ± 0.761 ng·h/mL
Cmax ([2]; pig, plasma, sc, S.C. 20 ug, neck): 1.08 ng/mL
Cmax (individual subjects) ([3]; T-1: 300 micro-channels/cm^2, 2 printed patches each 100 μg (dose 200 ug)): 94.366 pg/mL and 394.054 pg/mL and 437.693 pg/mL and 397.560 pg/mL
AUC (individual subjects) ([3]; T-1: 300 micro-channels/cm^2, 2 printed patches each 100 μg): 346 and 1340 and 1097 and 1067
Cmax AVG ([3]; T-1: 300 micro-channels/cm^2, 2 printed patches each 100 μg, mean of 4 women): 330.918 pg/mL
Cmax (individual subjects) ([3]; T-2: 150 micro-channels/cm^2, 2 printed patches each 200 μg (dose 400 ug)): 72.528 pg/mL and 463.893 pg/mL and 1293.464 pg/mL and 739.311 pg/mL
AUC (individual subjects) ([3]; T-2: 150 micro-channels/cm^2, 2 printed patches each 200 μg): 398 and 1498 and 3743 and 2128
Cmax AVG ([3]; T-2: 150 micro-channels/cm^2, 2 printed patches each 200 μg, mean of 4 women): 642.299 pg/mL
Cmax (individual subjects) ([3]; T-3: 300 micro-channels/cm^2, 2 printed patches each 200 μg (dose 400 ug)): 296.887 pg/mL and 534.872 pg/mL and 1304.179 pg/mL and 469.450 pg/mL
AUC (individual subjects) ([3]; T-3: 300 micro-channels/cm^2, 2 printed patches each 200 μg): 886 and 1251 and 4649 and 1327
Cmax AVG ([3]; T-3: 300 micro-channels/cm^2, 2 printed patches each 200 μg, mean of 4 women): 651.347 pg/mL
Tmax (individual subjects) ([3]; T-4: SC injection of 20 μg): 360 min and 18 min and 30 min
AUC (individual subjects) ([3]; T-4: SC injection of 20 μg): 172 and 158 and 176
Cmax AVG ([3]; T-4: SC injection of 20 μg, mean of 4 women): 29.291 pg/mL
Cmax (individual subjects) ([3]; T-4: SC injection of 20 μg): 12.196 pg/mL and 37.556 pg/mL and 29.350 pg/mL and 38.062 pg/mL
Tmax (individual subjects) ([3]; T-5: SC injection of 60 μg): 30 min
AUC (individual subjects) ([3]; T-5: SC injection of 60 μg): 84 and 100 and 474 and 399
Cmax AVG ([3]; T-5: SC injection of 60 μg, mean of 4 women): 111.514 pg/mL
Cmax (individual subjects) ([3]; T-5: SC injection of 60 μg): 59.209 pg/mL and 66.482 pg/mL and 185.324 pg/mL and 135.040 pg/mL
AUC ([3]; 100 ug, T-1: 300 micro-channels/cm^2, 2 printed patches each 100 μg, mean of 4 women, read-out: AUC AVG): 0.963 ng·h/mL
Tmax ([3]; 100 ug, T-1: 300 micro-channels/cm^2, 2 printed patches each 100 μg, read-out: Tmax (individual subjects)): 1 h
Cmax ([3]; other: transdermal printed patch on ViaDerm-treated skin, 100 ug, T-1: 300 micro-channels/cm^2, 2 printed patches each 100 μg, mean of 4 women): 0.331 ng/mL
Tmax ([3]; other: transdermal printed patch on ViaDerm-treated skin, 100 ug, T-1: 300 micro-channels/cm^2, 2 printed patches each 100 μg, mean of 4 women, read-out: Tmax AVG): 1.5 h
AUC ([3]; other: transdermal printed patch on ViaDerm-treated skin, 200 ug, T-2: 150 micro-channels/cm^2, 2 printed patches each 200 μg, mean of 4 women, read-out: AUC AVG): 1.94 ng·h/mL
Cmax ([3]; other: transdermal printed patch on ViaDerm-treated skin, 200 ug, T-2: 150 micro-channels/cm^2, 2 printed patches each 200 μg, mean of 4 women): 0.642 ng/mL
Tmax ([3]; other: transdermal printed patch on ViaDerm-treated skin, 200 ug, T-2: 150 micro-channels/cm^2, 2 printed patches each 200 μg, mean of 4 women, read-out: Tmax AVG): 2.1 h
Tmax ([3]; other: transdermal printed patch on ViaDerm-treated skin, 200 ug, T-2: 150 micro-channels/cm^2, 2 printed patches each 200 μg, read-out: Tmax (individual subjects)): 1.5 h
AUC ([3]; other: transdermal printed patch on ViaDerm-treated skin, 200 ug, T-3: 300 micro-channels/cm^2, 2 printed patches each 200 μg, mean of 4 women, read-out: AUC AVG): 2.03 ng·h/mL
Cmax ([3]; other: transdermal printed patch on ViaDerm-treated skin, 200 ug, T-3: 300 micro-channels/cm^2, 2 printed patches each 200 μg, mean of 4 women): 0.651 ng/mL
Tmax ([3]; other: transdermal printed patch on ViaDerm-treated skin, 200 ug, T-3: 300 micro-channels/cm^2, 2 printed patches each 200 μg, mean of 4 women, read-out: Tmax AVG): 2 h
Tmax ([3]; other: transdermal printed patch on ViaDerm-treated skin, 200 ug, T-3: 300 micro-channels/cm^2, 2 printed patches each 200 μg, read-out: Tmax (individual subjects)): 2.5 h
AUC ([3]; sc, 20 ug, T-4: SC injection of 20 μg, mean of 4 women, read-out: AUC AVG): 0.152 ng·h/mL
AUC ([3]; sc, 20 ug, T-4: SC injection of 20 μg, read-out: AUC (individual subjects)): 0.103 ng·h/mL
Cmax ([3]; sc, 20 ug, T-4: SC injection of 20 μg, mean of 4 women): 0.022 ng/mL
Tmax ([3]; sc, 20 ug, T-4: SC injection of 20 μg, mean of 4 women, read-out: Tmax AVG): 1.8 h
AUC ([3]; sc, 60 ug, T-5: SC injection of 60 μg, mean of 4 women, read-out: AUC AVG): 0.264 ng·h/mL
Cmax ([3]; sc, 60 ug, T-5: SC injection of 60 μg, mean of 4 women): 0.115 ng/mL
Tmax ([3]; sc, 60 ug, T-5: SC injection of 60 μg, mean of 4 women, read-out: Tmax AVG): 0.8 h
Tmax ([3]; sc, 60 ug, T-5: SC injection of 60 μg, read-out: Tmax (individual subjects)): 1 h
plasma concentrations of calcium ions [4]: elevation of calcium ions
plasma concentrations of phosphorus [4]: decrease of phosphorous
